Measured values reported in patent US20240024279A1, “METHODS FOR REDUCING THE WEIGHT LOSS OR INCREASING THE WEIGHT OF A FELINE IN NEED THEREOF” (INCREVET, INC., priority 2019, published 2024).
Entries after “also recorded” stand apart in the source; their conditions may differ.

Key:
[1] = test system: healthy purpose-bred cats; assay: Urinary glucose excretion in healthy purpose-bred cats after once-daily oral velagliflozin capsules for three days; assay type: in vivo, cat; settings: gelatin capsules once a day for three days, urine
Description: Velagliflozin (2-(4-cyclopropylbenzyl)-4-((2S,3R,4R,5S,6R)-3,4,5-trihydroxy-6-(hydroxymethyl)tetrahydro-2H-pyran-2-yl)benzonitrile, CAS number 946525-65-1; Compound 1) can be prepared by a variety of means, including as described in US2015/0164856A1 and is commercially available, for example as catalog number HY-109018 from MedChemExpress. Velagliflozin formulated in gelatin capsules was administered to healthy purpose-bred cats once a day for three days and the urinary glucose excretion recorded over the three consecutive 24-hour periods following dosing. Velagliflozin was administered at three dose levels: 1 mg, 3 mg and 10 mg per cat per day. The mean daily glucose excretion over three days was 2527 mg, 3601 mg and 5256 mg for mean dosages of 0.318 mg/kg, 0.953 mg/kg and 3.071 mg/kg, respectively.

[2] = test system: obese cats; settings: velagliflozin group, 1 mg/kg in gelatin capsules, cited from earlier work
[3] = test system: client-owned cats diagnosed with diabetes mellitus; assay: Field effectiveness study in client-owned cats with diabetes mellitus; assay type: in vivo, cat; settings: diabetic cats, oral once daily, day 0 to day 56, low-carbohydrate diet
Description: In a field effectiveness study, client-owned cats diagnosed with diabetes mellitus based on: i) two separate fasting (>6 h) blood glucose measurements >250 mg dL^−1; ii) glucosuria; iii) fructosamine >25% above the upper limit of normal for the testing laboratory, and iv) one or more of the following: polyuria/polydipsia, polyphagia and/or weight loss (documented in the cat's medical records) can be enrolled. Cats with suspected diabetes mellitus can be evaluated during visit 1 (within 7 days prior to day 0). Eligible cats can be enrolled during visit 2 (day 0) and management can be initiated using velagliflozin administered orally once daily. Cats can be prescribed a low-carbohydrate diet. Cats would return to the clinic for evaluation of glycemic control during visits 3 (day 14±3), 4 (day 28±3), and 5 (day 56±3). […] A cat can be brought back to the clinic at any time for unscheduled visits if such visits are determined to be necessary by the owner or investigator. Eight-hour blood glucose curves (blood samples collected every 2 h±15 min for 8 h) can be conducted at every visit starting with visit 2 (day 0) and blood glucose can be measured using an AlphaTRAK 2 glucometer (Abbott Laboratories). […] A central laboratory would be used to evaluate all clinical pathology samples (blood, serum, and urine) that are not analyzed in the clinic for blood glucose curves. […]

[4] = test system: experimental diabetes in dogs; settings: pancreatectomized animals in full glycosuria; cited from earlier work
[5] = most species; cited from earlier work
[6] = test system: experimental diabetes in cats; settings: cats with experimental diabetes, subcutaneous injection of a suspension in olive oil; cited from earlier work

Row | Structure (SMILES) | mean daily glucose excretion over three days ([1]; 1 mg per cat per day, mean dosage 0.318 mg/kg) [mg] | mean daily glucose excretion over three days ([1]; 3 mg per cat per day, mean dosage 0.953 mg/kg) [mg] | mean daily glucose excretion over three days ([1]; 10 mg per cat per day, mean dosage 3.071 mg/kg) [mg] | body weight at end of treatment ([2]; after the course of treatment) [kg] | food intake at end of treatment ([2]; after the course of treatment) [g] | body weight at start of treatment ([2]; before treatment) [kg] | food intake at start of treatment ([2]; before treatment) [g] | body weight change [3] | owner-evaluated clinical signs (polydipsia, polyphagia, polyuria) [3] | effect on hyperglycemia [4] | half-life [5] | effect on hyperglycemia [6]
1 | N#Cc1ccc([C@@H]2O[C@H](CO)[C@@H](O)[C@H](O)[C@H]2O)cc1Cc1ccc(C2CC2)cc1 [Velagliflozin, 2-(4-cyclopropylbenzyl)-4-((2S,3R,4R,5S,6R)-3,4,5-trihydroxy-6-(hydroxymethyl)tetrahydro-2H-pyran-2-yl)benzonitrile] | 2527 | 3601 | 5256 | 7.0 ± 1.4 | 58 ± 11 | 7.2 ± 1.5 | 57 ± 8 | Weight gain and reduction in weight loss; also recorded: increase the average weight of a cat or reduce the weight loss of a cat | improvement in polydipsia, polyphagia and polyuria | – | – | –
2 | O=C(CCc1ccc(O)cc1)c1c(O)cc(O)cc1O[C@@H]1O[C@H](CO)[C@@H](O)[C@H](O)[C@H]1O [phlorizin] | – | – | – | – | – | – | – | – | – | the hyperglycemia disappears | short half-life | dramatic reduction of hyperglycemia
